Legend:
[1] = test system: isolated myelin fractions; test: Spectrophotometry-based binding assay with isolated myelin fractions; set-up: species or system rat; details: 10 μM compound per tube, 1 h room temperature
Experimental: (§1) FIG. 2 illustrates plots of the concentrations of free, unbound 6 and 7 following incubation with isolated myelin fractions and non-myelin pellets based upon a spectroscopic assay. In these assays, 10 μM of 6 and 7 was added to each solution containing myelin fractions or non-myelin pellets at various concentrations ranging from 0-2.5 μg per tube. Each data point was repeated in triplicate and an average was used.
Binding affinities of newly synthesized compounds 6 and 7 were determined based on spectrophotometry. […] The desired proteins were aliquoted and frozen at −80° C. for up to 6 months without noticeable change in its properties determined by electrophoresis (data not shown). […] The free and bound tested compounds were then separated by centrifuging at 6000 rpm for 10 min and quantified.
Sprague-Dawley (SD) rats were asphyxiated with CO2. […] The concentration of myelin and pellet were determined by Bio-Rad Protein Assay.
In the spectrophotometry-based binding assays, a solution of 6 or 7 (800 μL, 12.5 μM) dissolved in 10% DMSO buffer solution containing 10 mM MgCl2 and 10 mM PBS (pH 7.4) was incubated with isolated myelin or pellets at different concentrations ranging from 0.06 to 14 μg/tube. […] In parallel, non-specific binding was determined using pellets under the same condition. […]

non-myelin pellets = test: Spectrophotometry-based binding assay with non-myelin pellets; set-up: species or system rat; details: 1 h room temperature; for binding to non-myelin fractions: 10 μM compound per tube; for concentration of free, unbound compound (constant and close to the total concentration initially used): incubated with non-myelin pellet at increasing concentration
Experimental: as §1
Binding affinities of newly synthesized compounds 6 and 7 were determined based on spectrophotometry. Myelin sheaths and non-myelin pellets were extracted from rat's brain homogenates according to subcellular fraction protocol (Martenson, R. E.; Deibler, G. E.; Kies, M. W. Extraction of rat myelin basic protein free of other basic proteins of whole central nervous system tissue. An analysis of its electrophoretic heterogeneity. J Biol Chem 1969, 244, 4268-4272). Briefly, the homogenates were successively mixed with different concentrations of sucrose and spun in a Beckman ultracentrifuge. Myelin sheaths and non-myelin containing pellets were well separated according to their different densities and located in different layers of sucrose. The proteins were then collected and washed thoroughly with Colman buffer (10 mM). The desired proteins were aliquoted and frozen at −80° C. for up to 6 months without noticeable change in its properties determined by electrophoresis (data not shown). Prior to binding assays, the protein fractions (myelin and pellet) were thawed and diluted with PBS (10 mM, pH 7.0). A series of concentrations of the protein fractions were incubated with tested compounds (6 and 7, 12.5 μM) for 1 h at room temperature. The free and bound tested compounds were then separated by centrifuging at 6000 rpm for 10 min and quantified.
(§2) Sprague-Dawley (SD) rats were asphyxiated with CO2. When the rat had stopped breathing, the skin/fur over the neck was wetted with a spray of 70% ethanol. […] The concentration of myelin and pellet were determined by Bio-Rad Protein Assay.
In the spectrophotometry-based binding assays, a solution of 6 or 7 (800 μL, 12.5 μM) dissolved in 10% DMSO buffer solution containing 10 mM MgCl2 and 10 mM PBS (pH 7.4) was incubated with isolated myelin or pellets at different concentrations ranging from 0.06 to 14 μg/tube. […] Following incubation at room temperature for 1 hr, the free and bound 6 or 7 was separated by centrifugation at 6000 rpm for 10 min The supernatant was then collected and the UV absorption of free 6 or 7 determined by UV spectrometer were at 350 nm or 363 nm. […] In parallel, non-specific binding was determined using pellets under the same condition. […]

[2] = molecular target: [3H]BMB binding sites on rat myelin fractions; test: Competition binding assay using [3H]BMB as radioligand in isolated myelin fractions; details: 1.87 nM [3H]BMB, Cheng-Prusoff from IC50
Experimental: FIG. 4 illustrates plots of competition binding assays of test compounds using [^3H]BMB as the radioligand in isolated myelin fractions. The concentrations that inhibited 50% of specific binding of [^3H]BMB (IC50 values) were converted to inhibition constant (Ki). Ki values were calculated using the Cheng-Prusoff equation: Ki=IC50/(1+[L]/Kd), where [L] is the concentration of [^3H]BMB used in the assay. Data are means of three independent measurements done in duplicate.
In vitro binding assay using radioligand is the most sensitive techniques available to quantitatively determine the binding affinities of compounds to certain proteins. Our previous studies have shown that BMB binds to myelin sheaths with high affinity and specifity (Stankoff, B.; Wang, Y.; Bottlaender, M.; Aigrot, M. S.; Dolle, F. et al. Imaging of CNS myelin by positron-emission tomography. Proc Natl Acad Sci USA 2006, 103, 9304-9309). For this reason, tritiated BMB was custom synthesized by American Radiolabeled Chemicals Inc. (St Louis, Mo.) and was used as the radioligand for binding assays. This allowed us to determine the binding affinities of the newly synthesized compounds using isolated rat myelin fractions. Saturation experiment was first conducted using [^3H]BMB. […] Competitive binding assays were also conducted using [^3H]BMB as radioligand. The stilbene derivatives competed effectively with [^3H]BMB binding sites on rat myelin fractions at affinities of low micromole concentrations.
as §2
The radioligand-based binding assays were carried out in 12×75 mm borosilicate glass tubes. […] Nonspecific binding was defined in the presence of cold BMB (1 μM, diluted in PBS (containing 1% DMSO) in the same assay tubes. For the competition binding, 10^−5 to 10^−10 M compounds and 1.87 nM [^3H]BMB were used for the studies. The mixture was incubated at 37° C. for 2 hrs. The bound and free radioactivity were separated by rapid vacuum filtration through Whatman GF/B filters using a Brandel M-24R cell harvester followed by 3×2 mL washes of PBS at room temperature. Filters containing the bound radioligand were dissolved in 6 mL biodegradable counting cocktail overnight and the radioactivity was assayed next day in the scintillation counter (Beckman) with 42% counting efficiency. The results of saturation and inhibition experiments were subjected to nonlinear regression analysis using Graph Pad Prism 4 by which Kd and Ki values were calculated.

[3] = test system: myelinated corpus callosum and cerebellum; test: In vitro staining of myelinated white matter in mouse brain tissue sections (fluorescent microscopy); assay type: binding; details: 10 μM, wild-type mouse brain sections
Experimental: We then evaluated the myelin-binding properties of the newly synthesized compounds 3, 6, and 7 through in vitro staining of mouse brain tissue sections. Both myelinated corpus callosum and cerebellar regions were then examined by fluorescent microscopy.
Normal control mice were deeply anesthetized and perfused transcardially with saline (10 mL) followed by fixation with 4% PFA in PBS (10 mL, 4° C., pH 7.6). Brain tissues were then removed, postfixed by immersion in 4% PFA overnight, dehydrated in 30% sucrose solution, embedded in freezing compound (OCT, Fisher Scientific, Suwanee, Ga.), cryostat sectioned at 10 μm on a microtome and mounted on superfrost slides (Fisher Scientific). The brain sections were incubated with compound 3, 6 and 7 (10 μM, 1% DMSO in PBS (10 mM, pH 7.0)) for 20 minutes at room temperature in dark. Excess compounds were washed by briefly rinsing the slides in PBS (10 mM, pH 7.0) and coversliped with fluoromount-G mounting media (Vector Laboratories, Burlingame, Calif.). Sections were then examined under a Leica DRMB microscope equipped for fluorescence.

myelinated cerebellum = test: In situ tissue staining of myelinated white matter after tail vein injection; assay type: in vivo, mouse; details: 20-80 mg/kg tail vein, three hours post injection, wild-type mice
Experimental: Following our in vitro tissue staining studies, we then evaluated the brain permeability and subsequent myelin-binding properties of 6 and 7 in the mouse brain. A dose of 6 or 7 (20-80 mg/kg) was administered via tail vein injection into wild-type mice. Three hours post injection, the mouse brains were perfused with saline followed by 4% paraformaldehyde (PFA) and removed. The fresh frozen brains were then sectioned. Fluorescent staining of myelinated regions such as the cerebellum were then directly examined under a microscope.
Under anesthesia, wild-type mice were injected with compounds 6 and 7 (20-80 mg/kg) via the tail vein, and the mice were then perfused transcardially with saline (10 ml) followed by 4% PFA in PBS (10 ml, 4° C., pH 7.6). Brain tissues were then removed, postfixed by immersion in 4% PFA overnight, dehydrated in 30% sucrose solution, cryostat sectioned at 16 μm on a microtome and mounted on superfrost slides (Fisher Scientific), and imaged directly under fluorescent microscopy without any further staining.

[4] = Solubility in organic solvents; assay type: physicochemical

In the case of `CN(C)c1ccc(/C=C/c2ccc(N)cc2)cc1` [Compound 6, (E)-dimethyl-{4-[2-(4-amino-phenyl)-vinyl]-phenyl}-amine], the “binding to myelin fractions (free concentration decreased proportionally with myelin concentration)” value [1] is reported as “specific binding interactions exist”, the “binding to non-myelin fractions” value (non-myelin pellets) is reported as “no binding to the non-myelin fractions” and the “concentration of free, unbound compound (constant and close to the total concentration initially used)” value (non-myelin pellets) is reported as ~10.47 µM. The Ki [2] was 119 nM, the “in vitro fluorescent staining of brain tissue sections” value (from here on “in vitro fluorescent staining”) [3] was “selectively labeled both corpus callosum and cerebellum” and the “brain entry and in situ labeling of myelin” value (myelinated cerebellum) was “readily entered the mouse brain and selectively labeled myelinated cerebellum”. For the same compound, the solubility [4] was “soluble in EtOH, CH2Cl2, DMSO and other organic solvents”.
In the case of `CNc1ccc(C=Cc2ccc(N)cc2)cc1` [Compound 7, N-methyl-{4-[2-(4-amino-phenyl)-vinyl]-phenyl}-amine], the “binding to myelin fractions (free concentration decreased proportionally with myelin concentration)” value [1] is reported as “specific binding interactions exist”, the “binding to non-myelin fractions” value (non-myelin pellets) is reported as “no binding to the non-myelin fractions” and the “concentration of free, unbound compound (constant and close to the total concentration initially used)” value (non-myelin pellets) is reported as ~10.53 µM. The Ki [2] was 126 nM, the “in vitro fluorescent staining” value [3] was “selectively labeled both corpus callosum and cerebellum” and the “brain entry and in situ labeling of myelin” value (myelinated cerebellum) was “readily entered the mouse brain and selectively labeled myelinated cerebellum”. For the same compound, the solubility [4] was “soluble in EtOH, CH2Cl2, DMSO and other organic solvents”.
In the case of `Nc1ccc(/C=C/c2ccc(N)cc2)cc1` [Compound 3, (E)-4,4′-diamino-trans-stilbene], the Ki [2] is reported as 370 nM, the “in vitro fluorescent staining” value [3] is reported as “selectively labeled both corpus callosum and cerebellum” and the solubility [4] is reported as “soluble in EtOH, CH2Cl2, DMSO and other organic solvents”.
`Nc1ccc(C=Cc2ccc(I)cc2)cc1` [Compound 9, 4-[2-(4-Iodo-phenyl)-vinyl]-phenylamine] showed a Ki [2] of 494 nM.

Reference: patent US9987379B2, “Molecular probes for imaging of myelin” (Case Western Reserve University, priority 2008, dated 2018)
